{
  "source": "patent US9447377B2",
  "about": "“Endodermal cells from pluripotent cells” (priority 2011, dated 2016)",
  "format_in_all_cases": "cell-based, murine",
  "key": {"[1]": {"test_system": "wt ES cells", "assay": "Differentiation of wt ES cells towards Sox17+ cells under PPP chemical inhibition, immunofluorescence analysis", "conditions": "immunofluorescence with anti-Sox17 antibody; serum-free KSR neural differentiation medium", "description": "(§1) Wt murine or with a deletion of the gene coding for G6PD (G6pdΔ) embryonic stem (ES) cells have been differentiated following the method described in Fico et al. (Fico A et al., Stem Cells Dev 2008). Briefly, 48 h before the induction of the differentiation, the ES cells have been plated onto pre-gelatinized plates. On day 0, the cells have been dissociated, thus obtaining a single cell suspension, which have subsequently been plated onto gelatinized plates at a density of 1.500 cells/cm2. During the differentiation process, the culture medium has been changed every other day for the first 6 days, then daily. The culture medium used consists in the medium free from integrated Knockout Serum Replacement (KSR) serum, and contains knockout Dulbecco minimal essential medium, integrated with 15% KSR (Invitrogen), 2 mM glutamine, 100 U/ml penicillin/streptomycin, and 0.1 mM β-mercaptoethanol.\nFrom 6 days of differentiation, the expression profiles of markers of undifferentiated cells and specific markers for the three germ layers have been analyzed by RT-PCR. The expression of Oct4 and Nanog, markers of undifferentiated ES cells, is detectable in both cell lines (FIG. 1A). […]"}, "[2]": {"test_system": "G6pdΔ cells", "assay": "Differentiation of G6pdΔ cells towards pancreatic precursors, Real Time PCR of Pdx1 expression", "conditions": "G6pdΔ cells on differentiation day 8, 4 day exposure", "description": "as §1\nThe real-time PCR analysis was carried out with a Biorad CFX 96 Real time System apparatus using a SYBR Green PCR Master Mix (Biorad) and the protocol recommended by the manufacturer. The relative expression of the various genes was normalized by using GAPDH as the gene standard. The used oligos were:\nG6pdΔ cells on differentiation day 8, that are already expressing Sox17, are exposed to Indolactam V, an inducer of the differentiation of endoderm precursors towards pancreatic precursors. […]"}, "[3]": {"test_system": "G6pdΔ cells", "assay": "Quantitative (real-time) PCR of Sox17 mRNA in G6pdΔ cells differentiated in the presence of D-(−)-ribose", "conditions": "normalized to GAPDH, 10 neural differentiation days in the presence of D-(−)-ribose", "description": "as §1, with “FIG. 2: (A) RT-PCR analysis of the expression of different specific differentiation markers in wt and Pgd+/- cells on neural differentiation days 8 and 10. (B) QRT-PCR analysis of Sox17 expression in wt ES e […]Δ cells after 10 neural differentiation days in the presence of D-(-)-ribose. Wt” for “Wt”, “[…]Δ)” for “(G6pdΔ)”, “β-mercaptoethanol. Heterozygous knock-out ES Pdg+/- cells for the phosphogluconate dehydrogenase (PDG) enzyme, the second enzyme present in the PPP, were exposed to the above-described differentiation procedure. […]” for “β-mercaptoethanol.”"}, "[4]": {"test_system": "wt ES cells", "assay": "Differentiation of wt ES cells in the presence of D-(−)-ribose", "conditions": "10 neural differentiation days", "description": "as §1, with “[…]Δ)” for “(G6pdΔ)”, “β-mercaptoethanol. Heterozygous knock-out ES Pdg+/- cells for the phosphogluconate dehydrogenase (PDG) enzyme, the second enzyme present in the PPP, were exposed to the above-described differentiation procedure. These cells have reduced Pdg mRNA levels, and are not sensitive to oxidative stress. […] Furthermore, […]Δ cells were exposed to the same differentiation procedure, but in the presence of D-(-)-ribose. […]” for “β-mercaptoethanol.”"}},
  "data": [
    {"smiles": "NC(=O)c1ccc(N)nc1", "note": "[AN, 6-aminonicotinamide]", "values": [
      {"measurement": "induction of differentiation of wt ES cells towards Sox 17+ cells", "setting": "[1]", "value": "capable of inducing the differentiation of wt ES cells towards Sox 17+ cells"}
    ]},
    {"smiles": "CC(C)[C@H]1C(=O)N[C@H](CO)Cc2c[nH]c3cccc(c23)N1C", "note": "[Indolactam V]", "values": [
      {"measurement": "increase in the Pdx1 expression levels compared to control cells", "setting": "[2]", "value": "about 2.5 times"}
    ]},
    {"smiles": "C[C@]12CC[C@H](O)CC1=CC[C@@H]1[C@@H]2CC[C@]2(C)C(=O)CC[C@@H]12", "note": "[DHEA, dehydroepiandrosterone]", "values": [
      {"measurement": "induction of differentiation of wt ES cells towards Sox 17+ cells", "setting": "[1]", "value": "capable of inducing the differentiation of wt ES cells towards Sox 17+ cells"}
    ]},
    {"smiles": "O=C[C@H](O)[C@H](O)[C@H](O)CO", "note": "[D-(−)-ribose]", "values": [
      {"measurement": "Sox17 mRNA levels in G6pdΔ cells", "setting": "[3]", "value": "a reduction in Sox17 mRNA levels"},
      {"measurement": "variation in the differentiation of wt ES cells", "setting": "[4]", "value": "does not lead to any variation in the differentiation of wt ES cells"}
    ]}
  ]
}
